Test results as given in US12605371B2, “Combination therapy for cancer” (The Board of Trustees of the Leland Stanford Junior …, priority 2020, dated 2026).
“Also recorded” adds a separate entry of the source.

How the values were obtained:
B16 tumors = assay: B16 subcutaneous (flank) tumor model, mice fed dabigatran etexilate chow; type: in vivo, mouse
Method: B16 subcutaneous tumor inoculation: B16 cells were grown until confluent and 2×10^6 cells were inoculated subcutaneously into WT, OPN-KI and OPN-KO mice. Mice were monitored daily for tumor growth. Tumor size was measured and volume calculated using the equation (width×width×length)/2. Animals were euthanized using CO2 and blood collected by cardiac puncture and tumors were isolated carefully. Blood was centrifuged at 2500 rpm for 20 min to prepare plasma and stored at −80° C. Tumors were weighed and measured. Part of the tumor was stored in formaldehyde for immunohistochemistry, part of it was frozen and stored at −80° C. for preparation of tumor lysates for OPN ELISAs. […] Animals were monitored daily and sacrificed after 2 weeks.

B16 cells [1] = assay: B16 pulmonary metastasis model, mice fed DE chow; type: in vivo, mouse
Method: Animals were monitored daily and sacrificed after 2 weeks. […] B16 metastasis model: 0.5×10^6 B16 cells were injected via tail vein into mice. After sacrifice, the lung was isolated and the number of metastatic nodules on surface was counted on both sides, before analyzing the left lobe for melanin determination. The left lobe of lung from each mouse was incubated in 1N NaOH/10% DMSO for 2 hr at 80° C. before centrifugation at 12,000 rpm for 10 min at room temperature. The absorbance at 470 nm of the supernatant was measured and compared to a standard of synthetic melanin (Sigma, St. Louis, MO). Lung was weighed before the start of process and melanin content was expressed as μg/mg protein determined by protein assay of lung tissue.

[2] = test system: factor Xa-protease-activated receptor 2 signaling in TAMs; conditions: in vivo; cited from earlier work
B16 cells [3] = assay: Cell migration assay (transwell), B16 cells; type: cell-based, mouse; conditions: 10 nM, 24 hr
Method: Cell migration assay: 10^5 B16 cells were placed in the upper chamber of a 6.5 mm transwell with a pore size of 8.0 μm (Sigma, XX). Cells were allowed to settle before the lower chamber was filled with BSA or various OPN fragments (10 nM) in presence of 0.2 mM MnCl2 (Sigma, St Louis, MO) and incubated at 37° C. for 24 hr. Cells that migrated to the lower chamber were centrifuged and resuspended into 90 ul of 1×HBSS (Gibco Life Technologies, Langley, OK) with 10 μl of CCK-8 staining solution (Dojindo Molecular Technologies Inc., Rockville, MD). Cells were incubated for 2 hr before measuring absorbance at 450 nm.

B16 cells [4] = assay: Apoptosis assay (camptothecin, Annexin V), B16 cells; type: cell-based, mouse; conditions: 10 nM, 20 μM camptothecin, 4 hr
Method: Apoptosis assay: 1×10^5 B16 cells were cultured in DMEM without serum overnight before addition of 20 μM camptothecin (Abcam, Burlingame, CA) in the presence of BSA or OPN fragments (10 nM). Cells were then incubated for 4 hr before addition of 200 μl of binding buffer. The plate was centrifuged at 400 g for 5 min and supernatant discarded. Annexin V FITC stain (Cayman chemicals, Ann Arbor, MI) was added to the cells and incubated at RT for 10 min in the dark. Cells were centrifuged as described above and 100 μl of binding buffer was added to each cell and fluorescence intensity measured at 485/535 nm (excitation/emission). Apoptotic index was calculated by dividing the camptothecin-treated cells with untreated cells.

B16 cells [5] = assay: Cell adhesion assay, B16 cells; type: cell-based, mouse; conditions: wells coated at 20 nM
Method: Cell adhesion assay: Wells in 96-well plate was coated with either BSA or different OPN fragments at a concentration of 20 nM in coating buffer (Gibco Life Technologies, Langley, OK) and incubated at 4° C. overnight. The plate was then washed thrice with PBS before blocking with 3% BSA for 1 hr. The cells were washed thrice with 1×HBSS containing 0.2 mM MnCl2. 2×10^6 B16 or RAW cells were added to the wells and incubated at 37° C. for 1 hr. Wells were washed and cells fixed with absolute ethanol for 20 min before staining with 0.1% crystal violet. Cells were washed repeatedly with PBS until no violet color was visible, lysed with 0.5% Triton X-100 and absorbance determined at 570 nm.

RAW cells = assay: PGE2 assay, RAW cells; type: cell-based, mouse; conditions: 10 nM
Method: PGE2 assay: 5×10^5 RAW cells were plated onto 6-well plate in serum free medium with either BSA or various OPN fragments (10 nM). Cells were cultured overnight before collecting the media and determining PGE2 by ELISA (Enzo, Farmingdale, NY).

thrombin = thrombin (Homo sapiens, UniProt P00734); assay: Thrombin treatment of E. coli produced GST-OPN and GST-OPNR153A, SDS-PAGE; type: biochemical; conditions: thrombin 10 nM, time course
Method: FIGS. 1A-1D: B16 tumors grow slower in OPN-KO and OPN-KI than WT mice in the flank model. FIG. 1A. Model of OPN cleavages and its functional modulation by thrombin and carboxypeptidase N or B2. OPN-FL=OPN-full length (SEQ ID NO:5); OPN-R=OPN-Arg (SEQ ID NO:6); OPN-L=OPN-Leu (SEQ ID NO:8). DC=dendritic cells. FIG. 1B. Time course of thrombin treatment (10 nM) of E. coli produced GST-OPN and GST-OPNR153A analyzed by SDS-PAGE. FL=full length, NTF=N-terminal fragment, CTF=C-terminal fragment (SEQ ID NO:7). FIG. 1C. Daily determination of B16 tumor volume grown on WT, OPN-KI and OPN-KO mice. FIG. 1D. B16 tumor weight after sacrifice. All data are shown as mean±SEM. Statistical significance was calculated by one-way ANOVA followed by Tukey's multiple comparison test.
The OPN-KI (OPNR153A) mice, similar to OPN-KO mice, were fertile and healthy before challenge, without any phenotypic changes observable in CBC, liver function and kidney function (FIGS. 9 and 10)

[6] = parenteral; particularly limited small cell lung cancers; cited from earlier work
B16 cells [7] = conditions: in vivo; cited from earlier work
[8] = OPN-KI or OPN-KO mice, trend, compared to untreated mice of same genotype
[9] = WT mice, compared to control WT mice, 13 days after inoculation

In the case of CCCCCCOC(=O)N=C(N)c1ccc(NCc2nc3cc(C(=O)N(CCC(=O)OCC)c4ccccn4)ccc3n2C)cc1 [DE, dabigatran etexilate], the “effect on B16 local tumor growth, weight and volume (in words)” value (B16 tumors; OPN-KI (and OPN-KO) mice) is reported as “did not further reduce; also recorded: no effect”, the “tumor weight after sacrifice” value (B16 tumors; OPN-KI mice, DE-containing chow, in g) is reported as 0.8±0.9 and the “tumor volume after sacrifice” value (B16 tumors; OPN-KI mice, DE-containing chow, mean±SEM) is reported as 0.73±0.3 cm^3. For the same compound, the “B16 tumor growth (in words)” value (B16 tumors; WT mice) was “tumor suppression; also recorded: grew slower”, the “tumor volume after sacrifice” value (B16 tumors; WT mice, DE-containing chow from 4 days before B16 inoculation until sacrifice, mean±SEM) was 1.0±0.2 cm^3 and the “tumor weight after sacrifice” value (B16 tumors; WT mice, DE-containing chow, mean±SEM) was 1.0 ± 0.2 g. The “melanin content of lungs” value (B16 cells [1]; [8]) was “decreased”, the pulmonary metastases (B16 cells [1]; [8]) was “fewer” and the “melanin content of lungs” value (B16 cells [1]; [9]) was “reduced”. For the same compound, the metastatic nodules/lung (B16 cells [1]; [9]) was “fewer”.
In the case of O=C(NC[C@H]1CN(c2ccc(N3CCOCC3=O)cc2)C(=O)O1)c1ccc(Cl)s1 [rivaroxaban], the “antitumor immunity (in words)” value [2] is listed as “promote antitumor immunity”.
For “OPN-CTF: C-terminal OPN fragment after thrombin cleavage (SEQ ID NO:7) (SKSKKFRR; OPN-CTF)”, the “B16 chemotaxis/migration relative to OPN-FL (in words: significantly increased or not)” value (B16 cells [3]) was “comparable to OPN-FL” and the “anti-apoptotic effect on B16 cells (in words)” value (B16 cells [4]) was “no anti-apoptotic effect”.
In the case of “OPN-FL: recombinant full length osteopontin (SEQ ID NO:5) (RGDSVVYGLRSKSKKFRR; OPN-FL)”, the “B16 cell migration compared to BSA (in words)” value (B16 cells [3]) is reported as “increased migration” and the “reduction of B16 cell apoptosis compared to BSA” value (from here on “reduction of B16 cell apoptosis”) (B16 cells [4]) is reported as about 3 fold.
In the case of “OPN-L: OPN-R with C-terminal arginine removed by CPN or CPB2 (SEQ ID NO:8) (RGDSVVYGL; OPN-L)”, the “B16 chemotaxis/migration relative to OPN-FL (in words: significantly increased or not)” value (B16 cells [3]) is reported as “not”, the “B16 cell adhesion compared to OPN-R (in words)” value (B16 cells [5]) is reported as “reduced adhesion” and the “reduction of B16 cell apoptosis” value (B16 cells [4]) is reported as about 3 fold.
In the case of “OPN-R: thrombin-cleaved OPN N-terminal fragment ending in Arg (SEQ ID NO:6) (RGDSVVYGLR; OPN-R)”, the “B16 cell migration compared to BSA (in words)” value (B16 cells [3]) is reported as “increased migration”, the “secretion of PGE2 by RAW cells (in words)” value (RAW cells) is reported as “significantly enhanced” and the “reduction of B16 cell apoptosis” value (B16 cells [4]) is reported as about 3 fold.
For “OPNR153A: mutant OPN with arginine in the thrombin cleavage site mutated to alanine (R153A), expressed in E. coli”, the “thrombin cleavage (in words)” value (thrombin) was “resistant to thrombin cleavage”.
In the case of heparin, the “survival of cancer patients (in words)” value [6] is listed as “survival benefit”.
For hirudin, the “metastasis of B16 cells (in words)” value (B16 cells [7]) is listed as “prevented metastasis”.
